Measured values as given in ChEMBL document CHEMBL3885861, “Open TG-GATES”.

Species on record: Rattus norvegicus
Assay: Open TG-GATES - Regimen: Single
Type: toxicity, organism-based, Sprague-Dawley
Design: regimen Single, gender Male, age 6 weeks
Conditions: in vivo, po, 10 mg/kg, route gavage, dose level Low; for APTT / Bas / Eos / Fbg / Hb / Ht / Lym / MCH / MCHC / MCV / Mono / Neu / PT / Plat / RBC / Ret / WBC: tissue Blood; for A/G / ALP / ALT / AST / BUN / CRE / Ca / Cl / DBIL / GLC / IP / K / LDH / Na / PL / RALB / TBIL / TC / TG / TP / gamma-GTP: tissue Plasma

Cn1cc[nH]c1=S [METHIMAZOLE]
TERMINAL_BW (3 h): 213.6 g | APTT (3 h): 21.5 s | Bas (3 h): 0% | Eos (3 h): 0.4% | Fbg (3 h): 291.6 mg/dL | Hb (3 h): 13.5 g/dL | Ht (3 h): 38.3% | Lym (3 h): 81.6% | MCH (3 h): 22.1 pg | MCHC (3 h): 35.3% | MCV (3 h): 62.6 fL | Mono (3 h): 2% | Neu (3 h): 15.2% | PT (3 h): 15.4 s | Plat (3 h): 123.9 x10_4/uL | RBC (3 h): 611.8 x10_4/ul | Ret (3 h): 8.4% | WBC (3 h): 93.7 x10_2/uL | A/G (3 h): 1.3 | ALP (3 h): 1742.6 IU/L | ALT (3 h): 42 IU/L | AST (3 h): 72.4 IU/L | BUN (3 h): 13.8 mg/dL | CRE (3 h): 0.1 mg/dL | Ca (3 h): 10.6 mg/dL | Cl (3 h): 106.6 meq/L | DBIL (3 h): 0 mg/dL | GLC (3 h): 179 mg/dL | IP (3 h): 8.9 mg/dL | K (3 h): 4.2 meq/L | LDH (3 h): 206 IU/L | Na (3 h): 141.2 meq/L | PL (3 h): 141.4 mg/dL | RALB (3 h): 3 g/dL | TBIL (3 h): 0.006 mg/dL | TC (3 h): 77 mg/dL | TG (3 h): 74.4 mg/dL | TP (3 h): 5.4 g/dL | gamma-GTP (3 h): 1.2 IU/L | TERMINAL_BW (6 h): 213.5 g | APTT (6 h): 20.7 s | Bas (6 h): 0% | Eos (6 h): 1% | Fbg (6 h): 279.8 mg/dL | Hb (6 h): 13.6 g/dL | Ht (6 h): 38.5% | Lym (6 h): 78.2% | MCH (6 h): 21.7 pg | MCHC (6 h): 35.2% | MCV (6 h): 61.8 fL | Mono (6 h): 2.2% | Neu (6 h): 18% | PT (6 h): 16.1 s | Plat (6 h): 103 x10_4/uL | RBC (6 h): 624.6 x10_4/ul | Ret (6 h): 8.8% | WBC (6 h): 85.4 x10_2/uL | A/G (6 h): 1.2 | ALP (6 h): 1761.8 IU/L | ALT (6 h): 44.2 IU/L | AST (6 h): 75.8 IU/L | BUN (6 h): 10.4 mg/dL | CRE (6 h): 0.1 mg/dL | Ca (6 h): 10.6 mg/dL | Cl (6 h): 106.4 meq/L | DBIL (6 h): 0 mg/dL | GLC (6 h): 185.2 mg/dL | IP (6 h): 9.3 mg/dL | K (6 h): 4.3 meq/L | LDH (6 h): 182.4 IU/L | Na (6 h): 141 meq/L | PL (6 h): 124.8 mg/dL | RALB (6 h): 2.8 g/dL | TBIL (6 h): 0.01 mg/dL | TC (6 h): 71.2 mg/dL | TG (6 h): 70.6 mg/dL | TP (6 h): 5.2 g/dL | gamma-GTP (6 h): 1 IU/L | TERMINAL_BW (9 h): 199.1 g | APTT (9 h): 21.1 s | Bas (9 h): 0% | Eos (9 h): 0.8% | Fbg (9 h): 299.4 mg/dL | Hb (9 h): 13.2 g/dL | Ht (9 h): 37.7% | Lym (9 h): 75.6% | MCH (9 h): 21.3 pg | MCHC (9 h): 35.2% | MCV (9 h): 60.6 fL | Mono (9 h): 1.6% | Neu (9 h): 21% | PT (9 h): 16.4 s | Plat (9 h): 124.5 x10_4/uL | RBC (9 h): 622.2 x10_4/ul | Ret (9 h): 7.7% | WBC (9 h): 78.9 x10_2/uL | A/G (9 h): 1.2 | ALP (9 h): 1423.4 IU/L | ALT (9 h): 38.4 IU/L | AST (9 h): 71.2 IU/L | BUN (9 h): 10.8 mg/dL | CRE (9 h): 0.1 mg/dL | Ca (9 h): 10.5 mg/dL | Cl (9 h): 106.4 meq/L | DBIL (9 h): 0.002 mg/dL | GLC (9 h): 178.2 mg/dL | IP (9 h): 9.6 mg/dL | K (9 h): 4.5 meq/L | LDH (9 h): 154.8 IU/L | Na (9 h): 140.6 meq/L | PL (9 h): 133.2 mg/dL | RALB (9 h): 3 g/dL | TBIL (9 h): 0.01 mg/dL | TC (9 h): 76.8 mg/dL | TG (9 h): 65 mg/dL | TP (9 h): 5.5 g/dL | gamma-GTP (9 h): 1 IU/L | TERMINAL_BW (24 h): 223.9 g | APTT (24 h): 20.3 s | Bas (24 h): 0% | Eos (24 h): 0.8% | Fbg (24 h): 307.8 mg/dL | Hb (24 h): 14 g/dL | Ht (24 h): 39.8% | Lym (24 h): 79.8% | MCH (24 h): 21.7 pg | MCHC (24 h): 35.2% | MCV (24 h): 61.9 fL | Mono (24 h): 2.4% | Neu (24 h): 16.4% | PT (24 h): 15.6 s | Plat (24 h): 96.9 x10_4/uL | RBC (24 h): 643.8 x10_4/ul | Ret (24 h): 7.2% | WBC (24 h): 79.8 x10_2/uL | A/G (24 h): 1.3 | ALP (24 h): 2168.2 IU/L | ALT (24 h): 55.2 IU/L | AST (24 h): 75 IU/L | BUN (24 h): 15.6 mg/dL | CRE (24 h): 0.1 mg/dL | Ca (24 h): 11 mg/dL | Cl (24 h): 106.2 meq/L | DBIL (24 h): 0 mg/dL | GLC (24 h): 180.6 mg/dL | IP (24 h): 6.9 mg/dL | K (24 h): 4.2 meq/L | LDH (24 h): 175 IU/L | Na (24 h): 142.2 meq/L | PL (24 h): 169.8 mg/dL | RALB (24 h): 3.1 g/dL | TBIL (24 h): 0.01 mg/dL | TC (24 h): 85.8 mg/dL | TG (24 h): 145.4 mg/dL | TP (24 h): 5.5 g/dL | gamma-GTP (24 h): 1 IU/L
